Experimental data reported in patent US20230159597A1 (priority 2020, published 2023).

Tested on: wild-type EBOV Mayinga

Row | Compound | relative potency | IC50 times higher than both TAT-EBO-PEG4-Chol and TAT-EBO-dPEG4-Chol
1 | CC[C@H](C)[C@H](NC(=O)CNC(=O)[C@H](CO)NC(=O)CNC(=O)[C@H](CCCNC(=N)N)NC(=O)[C@H](CCCNC(=N)N)NC(=O)[C@H](CCCNC(=N)N)NC(=O)[C@H](CCC(N)=O)NC(=O)[C@H](CCCNC(=N)N)NC(=O)[C@H](CCCNC(=N)N)NC(=O)[C@H](CCCCN)NC(=O)[C@H](CCCCN)NC(=O)[C@H](CCCNC(=N)N)NC(=O)CNC(=O)[C@H](Cc1ccc(O)cc1)NC(C)=O)C(=O)N[C@@H](C)C(=O)N[C@@H](C)C(=O)N[C@H](C(=O)N[C@@H](CC(C)C)C(=O)N1CCC[C@H]1C(=O)N[C@@H](Cc1c[nH]cn1)C(=O)N[C@@H](CC(=O)O)C(=O)N[C@@H](Cc1c[nH]c2ccccc12)C(=O)N[C@H](C(=O)N[C@@H](CCCCN)C(=O)N[C@@H](CC(N)=O)C(=O)N[C@H](C(=O)N[C@H](C(=O)N[C@@H](CC(=O)O)C(=O)N[C@@H](CCCCN)C(=O)N[C@H](C(=O)N[C@@H](CC(=O)O)C(=O)N[C@@H](CCC(N)=O)C(=O)N[C@H](C(=O)N[C@H](C(=O)N[C@@H](Cc1c[nH]cn1)C(=O)N[C@@H](CC(=O)O)C(=O)N[C@@H](Cc1ccccc1)C(=O)N[C@H](C(=O)N[C@@H](CC(=O)O)C(=O)N[C@@H](CCCCN)C(=O)NCC(=O)N[C@@H](CO)C(=O)NCC(=O)N[C@@H](CO)C(=O)NCC(=O)N[C@@H](CSCC(=O)O[C@H]1CC[C@@]2(C)C(=CC[C@H]3[C@@H]4CC[C@H]([C@H](C)CCCC(C)C)[C@@]4(C)CC[C@@H]32)C1)C(N)=O)C(C)C)[C@@H](C)CC)[C@@H](C)CC)[C@@H](C)CC)[C@@H](C)O)[C@@H](C)CC)[C@@H](C)O)[C@@H](C)CC [TAT-EBO-IAAILP-Chol] | the most potent peptide we designed so far | 
2 | CC[C@H](C)[C@H](NC(=O)CNC(=O)[C@H](CO)NC(=O)CNC(=O)[C@H](CCCNC(=N)N)NC(=O)[C@H](CCCNC(=N)N)NC(=O)[C@H](CCCNC(=N)N)NC(=O)[C@H](CCC(N)=O)NC(=O)[C@H](CCCNC(=N)N)NC(=O)[C@H](CCCNC(=N)N)NC(=O)[C@H](CCCCN)NC(=O)[C@H](CCCCN)NC(=O)[C@H](CCCNC(=N)N)NC(=O)CNC(=O)[C@H](Cc1ccc(O)cc1)NC(C)=O)C(=O)N[C@@H](C)C(=O)N[C@@H](C)C(=O)N[C@H](C(=O)N[C@@H](CC(C)C)C(=O)N1CCC[C@H]1C(=O)N[C@@H](Cc1c[nH]cn1)C(=O)N[C@@H](CC(=O)O)C(=O)N[C@@H](Cc1c[nH]c2ccccc12)C(=O)N[C@H](C(=O)N[C@@H](CCCCN)C(=O)N[C@@H](CC(N)=O)C(=O)N[C@H](C(=O)N[C@H](C(=O)N[C@@H](CC(=O)O)C(=O)N[C@@H](CCCCN)C(=O)N[C@H](C(=O)N[C@@H](CC(=O)O)C(=O)N[C@@H](CCC(N)=O)C(=O)N[C@H](C(=O)N[C@H](C(=O)N[C@@H](Cc1c[nH]cn1)C(=O)N[C@@H](CC(=O)O)C(=O)N[C@@H](Cc1ccccc1)C(=O)N[C@H](C(=O)N[C@@H](CC(=O)O)C(=O)N[C@@H](CCCCN)C(=O)NCC(=O)N[C@@H](CO)C(=O)NCC(=O)N[C@@H](CO)C(=O)NCC(=O)N[C@@H](CSCC(=O)NCCOCCOCCOCCOCCC(=O)O[C@H]1CC[C@@]2(C)C(=CC[C@H]3[C@@H]4CC[C@H]([C@H](C)CCCC(C)C)[C@@]4(C)CC[C@@H]32)C1)C(N)=O)C(C)C)[C@@H](C)CC)[C@@H](C)CC)[C@@H](C)CC)[C@@H](C)O)[C@@H](C)CC)[C@@H](C)O)[C@@H](C)CC [TAT-EBO-IAAILP-PEG4-Chol] |  | around 10 times
